Results taken from patent US20220372040A1, “METTL3 MODULATORS” (Accent Therapeutics, Inc., priority 2020, published 2022).

Key:
[1] = target: METTL3/METTL14 (Homo sapiens, UniProt Q86U44); assay: METTL3-14 standard enzyme assay (3H-SAM flashplate scintillation); assay type: biochemical; conditions: METTL3/METTL14 2.5 nM, RNA 100 nM, 3H-SAM 100 nM, 30 min
How it was run: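 Radiometric methylation readout: biotinylated RNA substrate UCUGGACUAAA and 3H-SAM, each 100 nM final, reacted 30 min at ambient temperature with 2.5 nM enzyme complex after 5 min compound preincubation (HEPES pH 7.5 buffer, KCl, MgCl2, DTT). Excess unlabelled SAM (15 μM) stopped reactions before streptavidin flashplate capture.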

[2] = target: PRMT5-MEP50 (Homo sapiens, UniProt O14744); assay: PRMT5 assay (3H-SAM flashplate scintillation); assay type: biochemical; conditions: PRMT5-MEP50 2.5 nM, histone H4 peptide 100 nM, 3H-SAM 250 nM, 60 min
How it was run: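 Radiometric methyltransferase read-out: after 60 min reaction, excess unlabelled SAM (15 μM) stops turnover and biotinylated H4 peptide (100 nM) carrying 3H-methyl from 250 nM 3H-SAM is captured on streptavidin flashplates (2 h, 25° C) for scintillation counting. Enzyme, 2.5 nM PRMT5-MEP50, was preincubated 5 min with compound in pH 8.0 Tris buffer with DTT and Tween.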

[3] = target: METTL1/WDR4 (Homo sapiens, UniProt Q9UBP6); assay: METTL1 assay (3H-SAM flashplate scintillation); assay type: biochemical; conditions: METTL1/WDR4 6.25 nM, RNA 25 nM, 3H-SAM 60 nM, 20 min; read-out: METTL1 IC50
Protocol: (§1) Assays were performed in a 25 μl-volume in 384-well V-bottom polypropylene microplates (Greiner Bio-One, cat. No. 781280) at ambient temperature. Optimized 1× assay buffer was 20 mM HEPES pH 7.5, 50 mM KCl, 250 μM MgCl2, 1 mM DTT, 0.01% Tween, 0.01% BSG, 0.004 U/μl RNAseOUT (cat. No. 10777019, ThermoFisher Scientific, Waltham, Mass.). For compound screening METTL1/WDR4 (final concentration, f.c.=6.25 nM) was added using a Multidrop Combi (ThermoFisher Scientific, Waltham, Mass.) and preincubated for 5 min. Reactions were started by adding 3′ biotinylated RNA ([…]-biotin) (f.c.=25 nM) and 3H-SAM (f.c.=60 nM) substrates. Reactions proceeded for 20 minutes and were quenched with excess non-radioactive SAM (f.c.=15 μM). The reactions were then transferred to streptavidin-coated flashplates and incubated for 2 hours at 25° C. Following two washing cycles with 0.1% Tween-20, the plates were sealed and read on a TopCount (PerkinElmer, Waltham, Mass.) plate-based scintillation counter. For determination of kinetic parameters, reaction times were optimized so that measurements were taken during the initial velocity phase of the reaction.

[4] = target: T1, METTL16 (Homo sapiens, UniProt Q86W50); assay: METTL16 assay (3H-SAM flashplate scintillation); assay type: biochemical; conditions: METTL16 100 nM, RNA 50 nM, 3H-SAM 200 nM, SAM 800 nM, 20 min
T1 sequence (Q86W50 1-562): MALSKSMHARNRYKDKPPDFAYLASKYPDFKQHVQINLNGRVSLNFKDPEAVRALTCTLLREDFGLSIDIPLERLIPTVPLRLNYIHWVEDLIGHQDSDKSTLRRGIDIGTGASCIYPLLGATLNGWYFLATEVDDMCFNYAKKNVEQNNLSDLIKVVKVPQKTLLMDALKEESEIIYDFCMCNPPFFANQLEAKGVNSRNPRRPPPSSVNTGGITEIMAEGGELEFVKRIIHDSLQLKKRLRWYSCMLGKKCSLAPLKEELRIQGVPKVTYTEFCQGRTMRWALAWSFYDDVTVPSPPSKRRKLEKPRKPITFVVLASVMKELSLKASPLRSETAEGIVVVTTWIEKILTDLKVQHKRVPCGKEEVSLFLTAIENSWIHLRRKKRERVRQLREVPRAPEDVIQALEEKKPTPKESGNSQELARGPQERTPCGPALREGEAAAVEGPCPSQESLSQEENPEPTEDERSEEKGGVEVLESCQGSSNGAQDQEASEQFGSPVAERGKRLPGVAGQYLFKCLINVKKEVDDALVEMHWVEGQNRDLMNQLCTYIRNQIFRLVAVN
Protocol: as §1, with “KCl,” for “KCl, 250 μM MgCl2,”, “METTL16” for “METTL1/WDR4”, “f.c.=100” for “f.c.=6.25”, “(f.c.=50 nM), 3H-SAM (f.c.=200” for “(f.c.=25”, “non-radiolabeled SAM (f.c.=800” for “3H-SAM (f.c.=60”, “(f.c.=100” for “(f.c.=15”

[5] = tested on: MOLM-13 cells; assay: MOLM-13 96 Hour cell proliferation assay (Cell Titer-Glo); assay type: cell-based; conditions: Homo sapiens
Protocol: MOLM-13 96 Hour Cell Proliferation Assay
MOLM-13 (DSMZ) cells were seeded at 600 cells per well in a volume of 44 μL in a Greiner Bio-One CELLSTAR™ 384 Well Polystyrene Cell Culture clear bottom microplate in RPMI 1640 media containing 10% fetal bovine serum using a Multidrop Combi (ThermoFisher Scientific). Cells were incubated overnight at 37° C. in a humidified tissue culture incubator. To prevent evaporation or to reduce edge effect, add 50 μL or more H2O to an empty plate, cover, and place on top of the cell plates. The Mosquito® HTS Liquid Handler was used to make a compound/media intermediate plate by aliquoting 1 μL of compound from the initial compound dilution plate (concentrations ranging from 10.0 mM to 38.0 nM in 100% DMSO) into Bio-One 384-well polypropylene conical bottom microplate containing 49 μL of media containing the appropriate serum (50-fold dilution, 2% DMSO, compound concentrations ranging from 200.0 μM and […]). The Apricot liquid handling system was used to transfer 6.2 μL compounds from the intermediate plate into the seeding plate containing 44 μL cells (8-fold dilution spanning concentrations 25.0 μM to […], 0.25% DMSO final), and placed in a humidified tissue culture incubator at 37° C. After 96 hours, 25 μL of Cell Titer-Glo reagent (Promega) was added to each well using an Integra liquid handling system. The plate was protected from light using TopSeal-A (Black) film over the entire plate, added White Bottom seal film on the bottom of the entire plate for a better reading on the Envision, and placed on an IKA plate shaker for at 300 rpm for 10 minutes at room temperature. The plate was read on an EnVision plate reader (Perkin Elmer) using the Ultra Sensitive Luminescence protocol. Data analysis was performed by normalizing the raw luminescence units to an average of the positive control values for staurosporine (100% cell death) and the negative control values for DMSO (0% cell death). An IC50 was calculated using a 4-parameter logistic nonlinear regression model in GraphPad Prism.

METTL3/METTL14, sequence (Q86U44 whole entry, species assumed): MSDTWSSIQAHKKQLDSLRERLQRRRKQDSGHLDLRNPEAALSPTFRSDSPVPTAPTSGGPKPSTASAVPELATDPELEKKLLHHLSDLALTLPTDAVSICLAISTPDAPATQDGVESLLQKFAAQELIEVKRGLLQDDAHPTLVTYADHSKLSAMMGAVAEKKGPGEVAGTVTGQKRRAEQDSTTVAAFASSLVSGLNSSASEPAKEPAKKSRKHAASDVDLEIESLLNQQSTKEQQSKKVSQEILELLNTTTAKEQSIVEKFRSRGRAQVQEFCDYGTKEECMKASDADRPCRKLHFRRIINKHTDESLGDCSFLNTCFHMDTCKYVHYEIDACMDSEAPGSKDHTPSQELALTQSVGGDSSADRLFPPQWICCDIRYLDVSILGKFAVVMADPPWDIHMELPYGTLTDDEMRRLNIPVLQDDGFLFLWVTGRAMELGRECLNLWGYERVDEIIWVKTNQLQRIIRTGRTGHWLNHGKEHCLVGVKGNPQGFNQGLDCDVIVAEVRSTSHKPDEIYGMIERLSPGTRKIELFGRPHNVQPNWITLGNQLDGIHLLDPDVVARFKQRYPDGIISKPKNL
METTL3/METTL14, sequence (Q9HCE5 whole entry partner, species assumed): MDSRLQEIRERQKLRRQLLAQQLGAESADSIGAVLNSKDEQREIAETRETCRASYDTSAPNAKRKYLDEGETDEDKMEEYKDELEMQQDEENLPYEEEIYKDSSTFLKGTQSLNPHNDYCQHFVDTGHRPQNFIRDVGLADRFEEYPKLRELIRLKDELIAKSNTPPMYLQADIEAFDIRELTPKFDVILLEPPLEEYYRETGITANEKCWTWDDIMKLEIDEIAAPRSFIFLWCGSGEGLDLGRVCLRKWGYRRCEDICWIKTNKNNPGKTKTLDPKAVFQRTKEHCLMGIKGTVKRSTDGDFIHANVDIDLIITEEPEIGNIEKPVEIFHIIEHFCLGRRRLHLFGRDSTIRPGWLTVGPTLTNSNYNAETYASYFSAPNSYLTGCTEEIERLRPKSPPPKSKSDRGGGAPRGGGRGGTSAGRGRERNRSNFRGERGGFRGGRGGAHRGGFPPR
PRMT5-MEP50, sequence (O14744 whole entry): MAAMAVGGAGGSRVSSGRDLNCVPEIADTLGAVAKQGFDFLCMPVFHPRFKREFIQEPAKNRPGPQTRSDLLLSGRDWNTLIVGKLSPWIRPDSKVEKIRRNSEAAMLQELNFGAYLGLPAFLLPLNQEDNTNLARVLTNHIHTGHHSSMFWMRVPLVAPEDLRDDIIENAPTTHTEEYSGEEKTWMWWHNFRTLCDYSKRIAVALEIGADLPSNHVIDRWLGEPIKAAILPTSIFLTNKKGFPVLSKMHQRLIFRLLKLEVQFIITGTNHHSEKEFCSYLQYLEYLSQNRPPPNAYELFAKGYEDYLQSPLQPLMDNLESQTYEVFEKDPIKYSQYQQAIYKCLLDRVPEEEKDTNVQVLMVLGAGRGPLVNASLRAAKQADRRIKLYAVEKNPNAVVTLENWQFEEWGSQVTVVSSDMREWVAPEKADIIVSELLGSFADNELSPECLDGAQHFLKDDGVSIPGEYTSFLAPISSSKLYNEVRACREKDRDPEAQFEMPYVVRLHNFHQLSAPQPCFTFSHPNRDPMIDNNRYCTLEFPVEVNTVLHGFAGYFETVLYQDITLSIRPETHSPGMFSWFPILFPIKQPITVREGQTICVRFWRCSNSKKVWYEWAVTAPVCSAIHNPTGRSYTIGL
PRMT5-MEP50, sequence (Q9BQA1 whole entry partner): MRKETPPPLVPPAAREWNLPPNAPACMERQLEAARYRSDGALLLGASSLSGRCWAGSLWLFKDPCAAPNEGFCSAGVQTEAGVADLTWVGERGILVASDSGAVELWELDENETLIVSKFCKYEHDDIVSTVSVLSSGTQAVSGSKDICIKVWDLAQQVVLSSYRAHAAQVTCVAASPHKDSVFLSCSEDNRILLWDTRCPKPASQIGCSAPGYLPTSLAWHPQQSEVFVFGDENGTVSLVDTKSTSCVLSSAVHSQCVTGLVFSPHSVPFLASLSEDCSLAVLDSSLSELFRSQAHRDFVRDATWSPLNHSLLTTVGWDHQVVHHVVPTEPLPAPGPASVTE
METTL1/WDR4, sequence (Q9UBP6 whole entry, species assumed): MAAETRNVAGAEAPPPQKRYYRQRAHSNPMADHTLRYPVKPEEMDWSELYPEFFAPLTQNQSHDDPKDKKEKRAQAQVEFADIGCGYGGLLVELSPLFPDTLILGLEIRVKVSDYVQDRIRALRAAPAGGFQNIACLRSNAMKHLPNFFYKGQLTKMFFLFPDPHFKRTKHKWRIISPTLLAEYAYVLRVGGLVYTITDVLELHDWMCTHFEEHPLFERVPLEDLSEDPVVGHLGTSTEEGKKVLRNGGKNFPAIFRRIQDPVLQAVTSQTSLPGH
METTL1/WDR4, sequence (P57081 whole entry partner, species assumed): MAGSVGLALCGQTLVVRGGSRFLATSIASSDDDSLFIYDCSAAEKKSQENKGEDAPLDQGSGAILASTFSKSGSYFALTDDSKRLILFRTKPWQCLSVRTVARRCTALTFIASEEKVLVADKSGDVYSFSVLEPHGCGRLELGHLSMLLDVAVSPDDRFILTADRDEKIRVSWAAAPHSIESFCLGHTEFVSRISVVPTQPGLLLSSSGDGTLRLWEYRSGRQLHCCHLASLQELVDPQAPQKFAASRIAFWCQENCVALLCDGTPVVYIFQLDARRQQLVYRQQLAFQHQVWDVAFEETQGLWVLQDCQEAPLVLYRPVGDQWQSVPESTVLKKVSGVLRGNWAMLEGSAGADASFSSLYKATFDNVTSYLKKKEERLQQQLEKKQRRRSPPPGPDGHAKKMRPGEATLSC

CNc1ccc2ccc(OCc3cncc(-n4cc(C5CCN(C)CC5)c5c(N)ncnc54)c3)cc2n1 [Compound I-33]
IC50 [1]: 0.1 to 1 µM
IC50 [2]: > 1 µM
IC50 [3]: > 1 µM
IC50 [4]: > 1 µM

CNc1ccc2ccc(OCc3nnc(-n4cc(Cl)c5c(N)ncnc54)s3)cc2n1 [Compound I-62]
IC50 [1]: > 1 µM
IC50 [2]: 0.01 to 0.1 µM
IC50 [3]: > 1 µM
IC50 [4]: > 1 µM

CNc1ccc2ccc(OCc3cc(-n4cc(Cl)c5c(N)ncnc54)ncn3)cc2n1 [Compound I-64]
IC50 [1]: > 1 µM
IC50 [2]: > 1 µM
IC50 [3]: > 1 µM
IC50 [4]: > 1 µM

Cc1cc(N)c2ccc(OCc3cccc(-n4cc(Cl)c5c(N)ncnc54)c3)cc2n1 [Compound I-65]
IC50 [1]: 0.01 to 0.1 µM
IC50 [2]: > 1 µM
IC50 [3]: > 1 µM
IC50 [4]: > 1 µM

Cc1cc(N)c2ccc(OCc3cccc(-n4ccc5c(N)ncnc54)c3)cc2n1 [Compound I-66]
IC50 [1]: 0.1 to 1 µM
IC50 [2]: > 1 µM
IC50 [3]: > 1 µM
IC50 [4]: > 1 µM

Nc1ncnc2c1c(Cl)cn2-c1cccc(COc2ccc3ccc(NCC4CC4)nc3c2)c1 [Compound I-67]
IC50 [1]: 0.1 to 1 µM
IC50 [2]: > 1 µM
IC50 [3]: > 1 µM
IC50 [4]: > 1 µM

CCc1ncc(-n2cc(Cl)c3c(N)ncnc32)cc1COc1ccc2ccc(NC)nc2c1 [Compound I-68]
IC50 [1]: 0.01 to 0.1 µM
IC50 [2]: > 1 µM
IC50 [3]: > 1 µM
IC50 [4]: > 1 µM

CNc1ccc2ccc(CN(C)c3cccc(-n4cc(Br)c5c(N)ncnc54)c3)cc2n1 [Compound I-69]
IC50 [1]: > 1 µM
IC50 [2]: > 1 µM
IC50 [3]: > 1 µM
IC50 [4]: > 1 µM

CNc1ccc2ccc(OCc3cccc(-c4c[nH]c5c(N)ncnc45)c3)cc2n1 [Compound I-71]
IC50 [1]: 0.01 to 0.1 µM
IC50 [2]: > 1 µM
IC50 [3]: > 1 µM
IC50 [4]: > 1 µM

CNc1ccc2ccc(CNc3cccc(-n4cc(Br)c5c(N)ncnc54)c3)cc2n1 [Compound I-72, 7-{[(3-{4-amino-5-bromo-7H-pyrrolo[2,3-d]pyrimidin-7-yl}phenyl)amino]methyl}-N-methylquinolin-2-amine]
IC50 [1]: 0.1 to 1 µM
IC50 [2]: > 1 µM
IC50 [3]: > 1 µM
IC50 [4]: > 1 µM

CNc1ccc2ccc(OCc3cccc(-n4cc(C5CC5)c5c(N)ncnc54)c3)cc2n1 [Compound I-73]
IC50 [1]: 0.01 to 0.1 µM
IC50 [2]: > 1 µM
IC50 [3]: > 1 µM
IC50 [4]: > 1 µM

CNc1ccc2ccc(OCc3cc(F)cc(-n4cc(Cl)c5c(N)ncnc54)c3)cc2n1 [Compound I-76]
IC50 [1]: 0.01 to 0.1 µM
IC50 [2]: > 1 µM
IC50 [3]: > 1 µM
IC50 [4]: > 1 µM

Nc1ccc2ccc(OCc3cccc(-n4cc(Cl)c5c(N)ncnc54)c3)cc2n1 [Compound I-77]
IC50 [1]: > 1 µM
IC50 [2]: > 1 µM
IC50 [3]: > 1 µM
IC50 [4]: > 1 µM

CNc1ccc2ccc(OCc3cccc(-n4ccc5c(N)ncnc54)c3)cc2n1 [Compound I-78]
IC50 [1]: 0.01 to 0.1 µM
IC50 [2]: > 1 µM
IC50 [3]: > 1 µM
IC50 [4]: > 1 µM

CNc1ccc2ccc(OCc3cccc(-n4cc(CC5CC5)c5c(N)ncnc54)c3)cc2n1 [Compound I-79]
IC50 [1]: 0.01 to 0.1 µM
IC50 [2]: > 1 µM
IC50 [3]: > 1 µM
IC50 [4]: > 1 µM

CNc1ccc2ccc(OCc3cc(-n4cc(Cl)c5c(N)ncnc54)ccc3F)cc2n1 [Compound I-80]
IC50 [1]: 0.01 to 0.1 µM
IC50 [2]: > 1 µM
IC50 [3]: > 1 µM
IC50 [4]: > 1 µM

CNc1ccc2ccc(OCc3cc(O)cc(-n4cc(Cl)c5c(N)ncnc54)c3)cc2n1 [Compound I-81]
IC50 [1]: 0.01 to 0.1 µM
IC50 [2]: > 1 µM
IC50 [3]: > 1 µM
IC50 [4]: > 1 µM

CNc1ccc2ccc(OCc3cccc(-n4cc(Cl)c5c(N)ncnc54)n3)cc2n1 [Compound I-84]
IC50 [1]: 0.01 to 0.1 µM
IC50 [2]: > 1 µM
IC50 [3]: > 1 µM
IC50 [4]: > 1 µM

CNc1ccc2ccc(OCc3ccnc(-n4cc(Cl)c5c(N)ncnc54)c3)cc2n1 [Compound I-85]
IC50 [1]: 0.1 to 1 µM
IC50 [2]: > 1 µM
IC50 [3]: > 1 µM
IC50 [4]: > 1 µM

CNc1ccc2ccc(OCc3cccc(-n4cc(C5CCCC5)c5c(N)ncnc54)c3)cc2n1 [Compound I-86]
IC50 [1]: 0.01 to 0.1 µM
IC50 [2]: > 1 µM
IC50 [3]: > 1 µM
IC50 [4]: > 1 µM

CNc1ccc2ccc(OCc3cc(C#N)cc(-n4ccc5c(N)ncnc54)c3)cc2n1 [Compound I-119]
IC50 [1]: 0.1 to 1 µM
IC50 [2]: > 1 µM
IC50 [3]: > 1 µM
IC50 [4]: > 1 µM

C[C@H]1CCN1c1ccc2ccc(OCc3cncc(-n4cc(C5CCCC5)c5c(N)ncnc54)c3)cc2n1 [Compound I-125]
IC50 [1]: 0.01 to 0.1 µM
IC50 [2]: > 1 µM
IC50 [3]: > 1 µM
IC50 [4]: > 1 µM

CCCc1cc(N)c2ccc(CCc3cncc(-n4cc(-c5ccn(C)n5)c5c(N)ncnc54)c3)cc2n1 [Compound I-131]
IC50 [1]: < 0.01 µM
IC50 [5]: < 1 µM

CNc1ccc2ccc(OCc3cccc(-n4ccc5c(N)ncnc54)c3F)cc2n1 [Compound I-226]
IC50 [1]: 0.01 to 0.1 µM
IC50 [2]: > 1 µM
IC50 [3]: > 1 µM
IC50 [4]: > 1 µM
